Laboratory results reported in publication PMC10924156, “Design, Preclinical Evaluation, and Clinical Translation of ^68Ga-FAPI-LM3, a Heterobivalent Molecule for PET Imaging of Nasopharyngeal Carcinoma” (Journal of Nuclear Medicine, 2024).
Positions of bridges follow the written chain, without caps; N, C: chain ends. Non-standard residues stand in square brackets, D forms with d. Residues, ends and D or L forms follow the SMILES beside them. *: point of attachment. DOTA = O=C(O)CN1CCN(CC(=O)O)CCN(CC(=O)*)CCN(CC(=O)O)CC1; dPhe(4-NHCONH2) = NC(=O)Nc1ccc(C[C@@H](N)C(=O)O)cc1; Phe(4-Cl) = N[C@@H](Cc1ccc(Cl)cc1)C(=O)O

Key:
[1] = parameters: method as in 2 sources, ref 21 = [21]; PMID 30072500; doi:10.2967/jnumed.118.215913; 21. Giesel FL Kratochwil C Lindner T . 68 Ga-FAPI PET/CT: biodistribution and preliminary dosimetry estimate of 2 DOTA-containing FAP-targeting agents in patients with various cancers . J Nucl Med. 20 ||| ref 15 = [15]; PMID 33579804; doi:10.2967/jnumed.120.253096; 15. Zhu W Cheng Y Jia R . A prospective, randomized, double-blind study to evaluate the safety, biodistribution, and dosimetry of 68 Ga-NODAGA-LM3 and 68 Ga-DOTA-LM3 in patients with well-differentiat; settings: in vivo; cited from earlier work
[2] = Small-animal PET imaging; settings: BALB/c nude, mouse, tumor (HT-1080-FAP plus HT-1080-SSTR2 xenograft), iv, 7.4 MBq, total radioactivity, tumor uptake (PET), i.v. approx 7.4 MBq, 3 mice/group
Method: (§1) Tumor-bearing mice (3/group) were intravenously injected with approximately 7.4 MBq of ^68Ga-FAPI-LM3, ^68Ga-FAPI-46, or ^68Ga-DOTA-LM3. Subsequent static PET scans were obtained at intervals of 0.5, 1, 2, and 4 h after injection using an Inveon small-animal PET scanner (Siemens). In the blocking experiment, approximately 60 nmol of the unlabeled precursor (FAPI-46, DOTA-LM3, or FAPI-46 plus DOTA-LM3) were simultaneously injected with ^68Ga-FAPI-LM3. The PET images were reconstructed iteratively using 3-dimensional OpMAP 256 (PET reconstruction protocol [.pPetRcn]; Siemens Healthineers AG) and converted to percentage injected dose per gram of tissue (%ID/g) by delineating the regions of interest. For the biodistribution studies, approximately 1.48 MBq of ^68Ga-FAPI-LM3, ^68Ga-FAPI-46, ^68Ga-DOTA-LM3, or ^68Ga-FAPI-LM3 with unlabeled precursor were injected into tumor-bearing mice (3/group), and different groups of mice were euthanized at the scheduled time points after injection.

[3] = Ex vivo biodistribution study; settings: BALB/c nude, mouse, tumor (HT-1080-FAP plus HT-1080-SSTR2 xenograft), 1.48 MBq, total radioactivity
Method: as §1

tissue uptake at 1 h ([2]; 1 h after injection): 5.93 ± 0.5 %ID/g | tissue uptake at 4 h ([2]; 4 h after injection): 4.46 ± 0.57 %ID/g | tissue uptake at 1 h [3]: 7.88 ± 1.1 %ID/g
Structure (SMILES): C[C@@H](O)[C@@H]1NC(=O)[C@H](CCCCN)NC(=O)[C@@H](Cc2ccc(NC(N)=O)cc2)NC(=O)[C@H](Cc2ccc(O)cc2)NC(=O)[C@H](NC(=O)[C@H](Cc2ccc(Cl)cc2)NC(=O)CN2CCN(CC(=O)O)CCN(CC(=O)O)CCN(CC(=O)O)CC2)CSSC[C@@H](C(=O)N[C@H](Cc2ccc(O)cc2)C(N)=O)NC1=O [^68Ga-DOTA-LM3, metal not drawn, reference compound] ({DOTA}-[Phe(4-Cl)][dC]Y[dPhe(4-NHCONH2)]KTC[dY]-NH2; disulfide 2-7)
effective dose [1]: 2.50 × 10^−2 mSv/MBq
